Settings: 10 mg/mL in Cremophor:EtOH (1:1) diluted 1:9 with D5W, room temperature (approximately 25° C.), 38 days
Experimental: 10 ml of this solution was diluted 1:9 by the addition of 90 ml of D5W, and the resulting formulation was mixed by inversion until the solution appeared uniformly clear. The resulting mixture—an injectable formulation—was incubated at room temperature (approximately 25° C.) for 38 days.

SMILES: O=C(Nc1cc(C(F)(F)F)ccc1Oc1ccc(Cl)c2ccccc12)c1cc(Cl)ccc1O [5-Chloro-N-[2-(4-chloro-naphtalen-1-yloxy)-5-trifluoromethyl-phenyl] -2-hydroxy-benzamide]
- Stability of compound concentration in the injectable formulation: stable over the entire period
